The results in this text go back to ChEMBL document CHEMBL1201862, “PubChem BioAssay data set” (2004).

Test [1] in a line: Trypanosoma cruzi growth suppression in host cells – NIH3T3 host cells, beta-gal luminescence, confirmation (AID 2044).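 Note: intracellular parasites grown in NIH/3T3 mouse fibroblasts as host cells; luminescent beta-galactosidase reporter signal from transgenic T. cruzi replicating inside host cells; inhibitors lower the luminescence signal.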 In kind it is functional, cell-based.
The target in test [2] is Voltage-gated inwardly rectifying potassium channel KCNH2 (Homo sapiens, UniProt Q12809). The experiment in a line: concentration-dependent hERG rescue from blockers – cell-based, thallium flux, dose response (AID 2121). It is filed as ADME.
Test [3] can be described thus: NIH3T3 cell viability loss – ATP luminescence, mouse fibroblasts, counter-screen, dose response (AID 2010).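 Note: cells exposed to compound for about 90 hours before reading.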 It is filed as functional, cell-based. A general note: The purpose of a counterscreen is to sort out artefacts and off-target activity.
The target in test [4] is Sphingosine 1-phosphate receptor 2 (Homo sapiens, UniProt O95136). The experiment in a line: Dose Response Cell Based Assay for Agonists of the S1P2 Receptor of Purchased Analogues. [Related pubchem assays: 729, 843, 854, 736 ]. In kind it is functional.
In test [5] the target is T1, Cytochrome P450 2D6 (Homo sapiens, UniProt P10635). The experiment in a line: qHTS Assay for Inhibitors and Substrates of Cytochrome P450 2D6. [Related pubchem assays: 410 ]. It is filed as ADME. The note with it: read-out: Potency. A general note: qHTS replaces the single test concentration by a dilution series.
The target in test [6] is T2, Cytochrome P450 2C19 (Homo sapiens, UniProt P33261). Description: qHTS Assay for Inhibitors and Substrates of Cytochrome P450 2C19. [Related pubchem assays: 410 ]. In kind it is ADME. Conditions: read-out: Potency.
Test [7] in a line: antiviral protection against BTV-induced cell death – arbovirus, BSR cells, confirmation (AID 1250).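 Note: protection from viral cytopathic effect measured as cell viability by ATP luminescence.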 In kind it is functional.
The test system of test [8] is HEK293. The experiment in a line: inhibition of NOD1-driven NF-kB reporter – cell-based, luminescence, uHTS, primary screen (AID 1578). In kind it is functional. Conditions: Homo sapiens.
Test [9] has as its system HEK293. Description: cells. In kind it is functional, cell-based. Conditions: Homo sapiens.
Test [10] has as its system HEK293. Description: cells. It is filed as functional, cell-based. The note with it: Homo sapiens. This is another data set of the same source.
Test [11] concerns HEK293. Description: NOD2 signaling inhibitors in MDP-stimulated cells, cell-based, uHTS, luminescence (AID 2001). It is filed as functional. Conditions: Homo sapiens.
Test [12] concerns the target T1, Cytochrome P450 2D6.
The nature of test [13]: HPDE-C7 pancreatic duct cell viability loss – fluorescence, HTS (AID 430). In kind it is functional, cell-based. The note with it: Homo sapiens.
A short description of test [14]: viability loss of HPDE-C7K cells – cell-based, fluorescence, HTS, primary screen (AID 431). It is filed as functional. The note with it: Homo sapiens.
Test [15] has as its target T3, Estrogen receptor (Homo sapiens, UniProt P03372).
T3 sequence (P03372 whole entry): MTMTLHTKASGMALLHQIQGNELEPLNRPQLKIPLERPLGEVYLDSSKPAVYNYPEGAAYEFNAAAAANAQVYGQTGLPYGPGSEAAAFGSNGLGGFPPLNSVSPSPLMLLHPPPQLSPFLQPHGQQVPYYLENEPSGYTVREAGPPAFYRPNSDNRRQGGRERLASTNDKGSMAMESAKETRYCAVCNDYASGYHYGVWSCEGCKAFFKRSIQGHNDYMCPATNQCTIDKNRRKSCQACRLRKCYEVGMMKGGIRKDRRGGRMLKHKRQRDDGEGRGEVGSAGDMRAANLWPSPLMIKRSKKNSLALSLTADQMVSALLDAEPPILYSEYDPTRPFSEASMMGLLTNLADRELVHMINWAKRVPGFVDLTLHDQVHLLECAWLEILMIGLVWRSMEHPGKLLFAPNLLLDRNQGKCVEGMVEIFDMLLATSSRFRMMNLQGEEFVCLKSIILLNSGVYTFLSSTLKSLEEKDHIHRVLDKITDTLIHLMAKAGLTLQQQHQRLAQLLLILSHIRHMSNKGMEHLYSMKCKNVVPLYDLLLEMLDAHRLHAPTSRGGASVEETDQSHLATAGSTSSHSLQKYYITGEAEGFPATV
Description: ERα coactivator recruitment enhancers – biochemical, TR-FRET, ERα LBD, dose response (AID 737).

The subject of test [16] is Vero. The experiment in a line: viability of Vero cells under compound – cytotoxicity control for flavivirus capping enzyme inhibitors (AID 588742). It is filed as functional. The note with it: Chlorocebus sabaeus.
In test [17] the target is T2, Cytochrome P450 2C19. Description: Cytochrome panel assay with activity outcomes. Panel member name: p450-cyp2c19 Compounds with AC50 equal or less than 10 uM are considered active. It is filed as functional. Conditions: read-out: AC50.
Test [18] deals with T4, Cytochrome P450 2C9 (Homo sapiens, UniProt P11712). Conditions: Potency.
Test [19] addresses T4, Cytochrome P450 2C9.

Calls of active or inactive are those of the source.

T1 sequence (P10635 whole entry): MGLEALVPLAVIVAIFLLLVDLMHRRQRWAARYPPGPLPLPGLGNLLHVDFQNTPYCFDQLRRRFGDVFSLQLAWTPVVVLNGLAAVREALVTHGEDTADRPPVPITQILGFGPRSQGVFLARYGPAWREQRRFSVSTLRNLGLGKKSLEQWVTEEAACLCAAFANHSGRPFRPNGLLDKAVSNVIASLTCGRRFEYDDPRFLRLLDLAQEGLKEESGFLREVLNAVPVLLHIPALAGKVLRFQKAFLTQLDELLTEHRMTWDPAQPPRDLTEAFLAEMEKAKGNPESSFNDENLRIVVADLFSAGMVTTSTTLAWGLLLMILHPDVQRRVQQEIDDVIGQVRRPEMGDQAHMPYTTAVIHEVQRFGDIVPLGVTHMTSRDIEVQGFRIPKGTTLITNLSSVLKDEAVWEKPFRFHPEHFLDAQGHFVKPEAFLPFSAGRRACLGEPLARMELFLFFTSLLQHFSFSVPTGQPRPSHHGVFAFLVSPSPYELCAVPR
T4 sequence (P11712 whole entry): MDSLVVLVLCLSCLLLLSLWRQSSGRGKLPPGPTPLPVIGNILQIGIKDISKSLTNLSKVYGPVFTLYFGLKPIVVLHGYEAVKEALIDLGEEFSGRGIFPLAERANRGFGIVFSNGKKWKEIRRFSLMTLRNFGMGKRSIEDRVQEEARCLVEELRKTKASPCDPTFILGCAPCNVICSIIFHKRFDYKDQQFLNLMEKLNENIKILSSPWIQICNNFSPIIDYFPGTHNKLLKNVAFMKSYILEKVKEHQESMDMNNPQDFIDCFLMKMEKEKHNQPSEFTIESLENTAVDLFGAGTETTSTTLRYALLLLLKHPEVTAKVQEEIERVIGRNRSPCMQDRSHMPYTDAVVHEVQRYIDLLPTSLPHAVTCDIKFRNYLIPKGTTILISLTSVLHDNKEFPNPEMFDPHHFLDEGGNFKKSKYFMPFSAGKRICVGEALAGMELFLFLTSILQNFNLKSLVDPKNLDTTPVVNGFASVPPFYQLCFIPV
Voltage-gated inwardly rectifying potassium channel KCNH2, sequence (Q12809 whole entry): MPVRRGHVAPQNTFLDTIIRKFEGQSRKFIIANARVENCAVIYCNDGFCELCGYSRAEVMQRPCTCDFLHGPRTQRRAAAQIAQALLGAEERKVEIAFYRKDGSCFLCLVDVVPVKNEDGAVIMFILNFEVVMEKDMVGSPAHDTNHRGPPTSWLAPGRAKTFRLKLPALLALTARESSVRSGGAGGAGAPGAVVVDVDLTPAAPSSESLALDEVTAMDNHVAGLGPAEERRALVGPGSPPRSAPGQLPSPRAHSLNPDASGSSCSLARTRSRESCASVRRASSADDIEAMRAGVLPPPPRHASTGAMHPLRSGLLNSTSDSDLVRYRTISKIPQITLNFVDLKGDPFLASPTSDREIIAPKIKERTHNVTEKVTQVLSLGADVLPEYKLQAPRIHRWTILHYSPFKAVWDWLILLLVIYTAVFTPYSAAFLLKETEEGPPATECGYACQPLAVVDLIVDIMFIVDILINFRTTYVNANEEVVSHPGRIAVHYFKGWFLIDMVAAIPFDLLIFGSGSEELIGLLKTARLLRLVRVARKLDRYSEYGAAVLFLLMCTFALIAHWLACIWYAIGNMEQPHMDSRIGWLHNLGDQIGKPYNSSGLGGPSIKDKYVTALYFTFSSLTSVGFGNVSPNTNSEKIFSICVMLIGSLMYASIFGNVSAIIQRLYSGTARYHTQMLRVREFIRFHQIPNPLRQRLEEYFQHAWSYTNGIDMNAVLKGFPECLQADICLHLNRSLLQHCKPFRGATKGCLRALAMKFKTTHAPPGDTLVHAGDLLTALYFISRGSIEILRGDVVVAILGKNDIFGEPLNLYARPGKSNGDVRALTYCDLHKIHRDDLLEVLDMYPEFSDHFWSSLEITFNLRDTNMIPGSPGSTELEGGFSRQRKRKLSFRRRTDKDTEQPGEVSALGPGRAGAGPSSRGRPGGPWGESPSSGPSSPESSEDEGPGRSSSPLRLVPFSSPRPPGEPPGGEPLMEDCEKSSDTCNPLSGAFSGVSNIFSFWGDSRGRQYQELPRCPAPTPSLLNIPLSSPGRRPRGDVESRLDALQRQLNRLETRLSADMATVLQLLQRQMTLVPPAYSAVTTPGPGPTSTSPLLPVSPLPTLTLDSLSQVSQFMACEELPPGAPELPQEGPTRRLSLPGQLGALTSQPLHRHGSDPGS
T2 sequence (P33261 whole entry): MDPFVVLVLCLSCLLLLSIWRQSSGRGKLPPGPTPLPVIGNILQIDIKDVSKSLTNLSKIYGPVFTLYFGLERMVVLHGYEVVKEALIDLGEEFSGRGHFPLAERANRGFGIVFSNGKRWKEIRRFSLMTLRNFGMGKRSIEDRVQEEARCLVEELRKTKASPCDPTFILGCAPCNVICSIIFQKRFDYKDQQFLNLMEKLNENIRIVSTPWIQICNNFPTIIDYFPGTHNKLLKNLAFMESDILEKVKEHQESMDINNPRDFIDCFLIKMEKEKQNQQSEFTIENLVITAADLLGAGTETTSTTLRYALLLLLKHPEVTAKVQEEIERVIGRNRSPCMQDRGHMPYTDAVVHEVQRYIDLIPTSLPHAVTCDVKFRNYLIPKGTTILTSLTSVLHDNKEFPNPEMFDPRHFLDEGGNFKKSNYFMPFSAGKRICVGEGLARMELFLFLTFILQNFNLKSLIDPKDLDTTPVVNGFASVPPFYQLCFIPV
Sphingosine 1-phosphate receptor 2, sequence (O95136 whole entry): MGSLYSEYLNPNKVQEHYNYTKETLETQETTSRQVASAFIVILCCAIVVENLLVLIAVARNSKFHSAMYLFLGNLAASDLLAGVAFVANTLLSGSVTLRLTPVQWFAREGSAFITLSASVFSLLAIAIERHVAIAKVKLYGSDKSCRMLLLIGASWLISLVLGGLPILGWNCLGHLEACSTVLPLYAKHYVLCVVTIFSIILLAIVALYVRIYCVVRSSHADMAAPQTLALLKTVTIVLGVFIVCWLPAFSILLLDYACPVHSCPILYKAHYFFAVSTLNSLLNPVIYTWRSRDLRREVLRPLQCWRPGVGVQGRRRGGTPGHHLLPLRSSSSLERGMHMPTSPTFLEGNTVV

The EC50 is the concentration giving half of the maximal effect. On to `Cc1cccc(Cn2c(O)c(N=NC(S)=Nc3ccccc3F)c3ccccc32)c1`, for which the values for the EC50 in [1], in test [2] and in test [3] were 0.663 µM (active), 1.09 µM (active) and 2.68 µM (active), respectively.

For the molecule `Cc1cc(C(=O)CN2CCN(C(=O)c3ccco3)CC2)c(C)n1Cc1ccccc1`, the EC50 in test [4] is > 30 µM (not active).

`O=C1c2ccccc2C(O)(O)[C@@]1(O)[C@]1(O)C(=O)c2ccccc2C1(O)O`: the AC50 in test [5] was 7.94 µM (inconclusive).

Regarding `COc1cccc(NC(=O)/C=C\c2ccc(Cl)cc2)c1`, the AC50 in [6] was 3.98 µM (inconclusive).

A word on the IC50: it is the concentration needed to halve the response being measured. `CC(CCc1ccccc1)NC(=O)c1cc2sccc2n1C` (stereo unspecified): the IC50 in [7] was > 100 µM (active).

As for `CSC(=S)N/N=C/c1ccc(Br)cc1`, the EC50 is > 20 µM (inactive) in test [8] and 0.3 µM (active) in test [2]. The figures for the IC50 in [9], in test [10] and in test [11] were > 20 µM (inactive), > 20 µM (inactive) and 14.2 µM (inactive), respectively.

For `COc1ccc(C[C@H]2c3cc(OC)c(OC)cc3CCN2C)cc1OC`, the AC50 is 12.6 µM (inconclusive) in test [5] and 6.31 µM (inconclusive) in test [12].

One may read the CC50 as the concentration at which the toxic effect on the cells reaches its halfway point. For the molecule `CCC(=O)Oc1ccc(/C(CC)=C(\CC)c2ccc(OC(=O)CC)cc2)cc1` [DIETHYLSTILBESTROL DIPROPIONATE], the EC50 in test [13] was 4.6 µM (active); in test [14], 3.87 µM (active); in test [15] it was 18.1 µM (active). The CC50 in test [16] is > 40 µM (active).

As to `CC(C)C(=O)Nc1ccc([N+](=O)[O-])c(C(F)(F)F)c1` [FLUTAMIDE], the AC50 in test [17] is 10 µM (inconclusive); in test [18], 39.8 µM (inconclusive); in test [19], 12.6 µM (inconclusive).
